From ChEMBL document CHEMBL2062379, “Cleavage mechanism and anti-tumor activity of 3,6-epidioxy-1,10-bisaboladiene isolated from edible wild plants” (Bioorg Med Chem, 2012)
The source made the active and inactive calls. The calls are words filed in the database; no cut-off is given here.

Assays:
MCF7 = experiment: Growth inhibition of human MCF7 cells; type: functional
SF-268 = experiment: Growth inhibition of human SF268 cells; type: functional
SF-295 = experiment: Growth inhibition of human SF295 cells; type: functional
SNB-78 = experiment: Growth inhibition of human SNB78 cells; type: functional
KM12 = experiment: Growth inhibition of human KM12 cells; type: functional
HT-29 = experiment: Growth inhibition of human HT-29 cells; type: functional
HCT-15 = experiment: Growth inhibition of human HCT15 cells; type: functional
HCT-116 = experiment: Growth inhibition of human HCT116 cells; type: functional
NCI-H23 = experiment: Growth inhibition of human NCI-H23 cells; type: functional
NCI-H226 = experiment: Growth inhibition of human NCI-H226 cells; type: functional
NCI-H522 = experiment: Growth inhibition of human NCI-H522 cells; type: functional
NCI-H460 = experiment: Growth inhibition of human NCI-H460 cells; type: functional
A549 = experiment: Growth inhibition of human A549 cells; type: functional
LOX IMVI [1] = experiment: Growth inhibition of human LOXIMVI cells; type: functional
OVCAR-3 = experiment: Growth inhibition of human OVCAR3 cells; type: functional
OVCAR-4 = experiment: Growth inhibition of human OVCAR4 cells; type: functional
OVCAR-5 = experiment: Growth inhibition of human OVCAR5 cells; type: functional
SK-OV-3 = experiment: Growth inhibition of human SKOV3 cells; type: functional
[2] = Growth inhibition of human RXF631L cells; type: functional; settings: RXF 631
ACHN = experiment: Growth inhibition of human ACHN cells; type: functional
[3] = Growth inhibition of human MKN1 cells; type: functional; settings: MKN-1
MKN-7 = experiment: Growth inhibition of human MKN7 cells; type: functional
MKN-28 = experiment: Growth inhibition of human MKN28 cells; type: functional
MKN-45 = experiment: Growth inhibition of human MKN45 cells; type: functional
LOX IMVI [4] = experiment: Antitumor activity against human LOXIMVI cells xenografted in nude mouse assessed as decrease in tumor volume at 25 mg/kg, iv administered on day 1, 6 and 11 post tumor inoculation measured on day 21; type: functional; set-up: scale not given: the % may be the effect or the level left
Mus musculus = experiment: Toxicity in nude mouse bearing human LOXIMVI cells assessed as change in body weight at 25 mg/kg, iv administered on day 1, 6 and 11; type: organism-based, LOX IMVI; set-up: dose 25 mg/kg, route intravenous; settings: in vivo
PC-3 = experiment: Growth inhibition of human PC3 cells; type: functional
Saccharomyces cerevisiae [5] = experiment: Growth restoration activity in cdc2-1 rad9-deficient Saccharomyces cerevisiae assessed as growth zone incubated at 37 degC for 6 hrs and 28 degC for 2 days relative to mycophenolic acid; type: functional
K562 = experiment: Cytotoxicity against human K562 cells after 4 days by MTT assay; type: functional, cell-based; settings: K562, 96 h
LNCaP = experiment: Cytotoxicity against human LNCAP cells after 4 days by MTT assay; type: functional, cell-based; settings: 96 h
Saccharomyces cerevisiae [6] = experiment: Growth restoration activity in cdc2-1 rad9-deficient Saccharomyces cerevisiae assessed as growth zone at 1 ug/disc incubated at 37 degC for 6 hrs and 28 degC for 2 days; type: functional
Saccharomyces cerevisiae [7] = experiment: Growth restoration activity in cdc2-1 rad9-deficient Saccharomyces cerevisiae assessed as growth zone at 0.5 ug/disc incubated at 37 degC for 6 hrs and 28 degC for 2 days; type: functional
HL-60 [8] = experiment: Cytotoxicity against human HL60 cells after 48 hrs by MTT assay; type: functional, cell-based; settings: HL-60, 48 h
HL-60 [9] = experiment: Induction of apoptosis in human HL60 cells assessed as condensed and fragmented nuclie at 10.6 uM after 18 hrs by Hoechst staining-based microscopic analysis relative to control; type: functional, cell-based
HL-60 [10] = experiment: Induction of apoptosis in human HL60 cells assessed as DNA fragmentation after 24 hrs by Hoechst staining-based microscopic analysis; type: functional, cell-based
HL-60 [11] = experiment: Induction of apoptosis in human HL60 cells assessed as DNA fragmentation at 1.25 to 40 uM by Hoechst staining-based microscopic analysis; type: functional, cell-based; settings: TDE = time-dependent effect
HL-60 [12] = experiment: Induction of apoptosis in human HL60 cells assessed as caspase 8 activation at 20 uM after 3 hrs by spectrophotometric analysis; type: functional, cell-based
HL-60 [13] = experiment: Induction of apoptosis in human HL60 cells assessed as caspase 9 activation at 20 uM after 3 hrs by spectrophotometric analysis; type: functional, cell-based
HL-60 [14] = experiment: Induction of apoptosis in human HL60 cells assessed as caspase 3/7 activation after 1 to 6 hrs by spectrophotometric analysis; type: functional, cell-based
HL-60 [15] = experiment: Induction of apoptosis in human HL60 cells assessed as caspase 9 activation after 1 to 6 hrs by spectrophotometric analysis; type: functional, cell-based
HL-60 [16] = experiment: Induction of apoptosis in human HL60 cells assessed as DNA fragmentation after 24 hrs by Hoechst staining-based microscopic analysis preincubated with 10 uM ERK inhibitor PD98059; type: functional, cell-based
[17] = molecular target: MAP kinase p38 (Homo sapiens) (UniProt O15264+Q15759+Q16539+P53778); experiment: Induction of p38 MAPK phosphorylation at T180/Y182 in human HL60 cells at 10 uM after 3 hrs by Western blot analysis; type: cell-based; settings: HL-60
[18] = Prodrug conversion in buffer at pH 8 assessed as (1)- 7-(1,5-Dimethyl-hex-4-enyl)-4-methyl-3,8-dioxa-tricyclo[5.1.0.0*2,4*]octane formation after 24 hrs by HPLC analysis in presence of 25 mM FeSO4; type: physicochemical; settings: pH 8, 24 h
HL-60 [19] = experiment: Cytotoxicity against human HL60 cells after 48 hrs by MTT assay in presence of DFOM; type: functional, cell-based; settings: HL-60, 48 h
HL-60 [20] = experiment: Ratio of IC50 for human HL60 cells in presence of DFOM to IC50 for human HL60 cells in absence of DFOM; type: functional
HL-60 [21] = experiment: Cytotoxicity against human HL60 cells assessed as cell viability at 2 uM by MTT assay; type: functional; settings: read-out: Activity
HL-60 [22] = experiment: Cytotoxicity against human HL60 cells assessed as cell viability at 2 uM by MTT assay in presence of 20 uM FeSO4; type: functional
HL-60 [23] = experiment: Cytotoxicity against human HL60 cells assessed as cell viability at 2 uM by MTT assay in presence of 20 uM Fe2(SO4)3; type: functional
HL-60 [24] = experiment: Induction of ROS generation in human HL60 cells at 10 uM measured immediately by spectrofluorometric analysis; type: functional, cell-based
HL-60 [25] = experiment: Induction of ROS generation in human HL60 cells at 10 uM after 3 hrs by spectrofluorometric analysis; type: functional, cell-based
[26] = Induction of ROS generation at 10 uM after 3 hrs by spectrofluorometric analysis in presence of FeSO4; type: physicochemical
HL-60 [27] = experiment: Induction of apoptosis in human HL60 cells assessed as DNA fragmentation after 24 hrs by Hoechst staining-based microscopic analysis in presence of 100 uM free radical scavenger vitamin E; type: functional, cell-based
HL-60 [28] = experiment: Induction of apoptosis in human HL60 cells assessed as DNA fragmentation after 24 hrs by Hoechst staining-based microscopic analysis in presence of 50 uM superoxide scavenger allopurinol; type: functional, cell-based
[29] = Growth inhibition of human HBC4 cells; type: functional
[30] = Growth inhibition of human HBC5 cells; type: functional

## CC(C)=CCCC(C)C12C=CC(C)(CC1)OO2 (stereo not given)
MCF7
  GI50: 2090 nM
SF-268
  GI50: 7.08 µM
SF-295
  GI50: 1660 nM
SNB-78
  GI50: 1550 nM
KM12
  GI50: 1860 nM
HT-29
  GI50: 178 nM
HCT-15
  GI50: 4.9 µM
HCT-116
  GI50: 3.72 µM
NCI-H23
  GI50: 1700 nM
NCI-H226
  GI50: 3.89 µM
NCI-H522
  GI50: 200 nM
NCI-H460
  GI50: 832 nM
A549
  GI50: 1550 nM
LOX IMVI [1]
  GI50: 214 nM
OVCAR-3
  GI50: 1740 nM
OVCAR-4
  GI50: 1820 nM
OVCAR-5
  GI50: 12 µM
SK-OV-3
  GI50: 7.94 µM
[2]
  GI50: 2510 nM
ACHN
  GI50: 1230 nM
[3]
  GI50: 1740 nM
MKN-7
  GI50: 3.63 µM
MKN-28
  GI50: 8.32 µM
MKN-45
  GI50: 6.31 µM
LOX IMVI [4]
  Activity: 26.9%
Mus musculus
  Activity: Non-toxic
PC-3
  GI50: 1820 nM
Saccharomyces cerevisiae [5]
  fold change (FC): 50
K562
  IC50: 9.1 µM
LNCaP
  IC50: 23.4 µM
Saccharomyces cerevisiae [6]
  Activity: 19 mm
Saccharomyces cerevisiae [7]
  Activity: 0 mm
HL-60 [8]
  IC50: 3.4 µM
HL-60 [9]
  Activity: Active
HL-60 [10]
  Activity: Dose-dependent effect
HL-60 [11]
  Activity: tde
HL-60 [12]
  Activity: Active
HL-60 [13]
  Activity: Active
HL-60 [14]
  Activity: Dose-dependent effect
HL-60 [15]
  Activity: Dose-dependent effect
HL-60 [16]
  Activity: Active
[17]
  Activity: Active
[18]
  Drug metabolism: Active
HL-60 [19]
  IC50: 35.5 µM
HL-60 [20]
  Ratio IC50: 10
HL-60 [21]
  viability at 2 µM: 77.8%
HL-60 [22]
  Activity: 33.2%
HL-60 [23]
  Activity: 34.9%
HL-60 [24]
  Activity: Active
HL-60 [25]
  Activity: inactive
[26]
  Activity: Active
HL-60 [27]
  Activity: inactive
HL-60 [28]
  Activity: Active
[29]
  GI50: 1120 nM
[30]
  GI50: 191 nM
